# According to article PMC9851200, “Multiparameter phenotypic screening for endogenous TFEB and TFE3 translocation identifies novel chemical series modulating lysosome function” (Autophagy, 2022):
# Experiments:
# [1] = molecular target: MINK1/MINK (Homo sapiens, UniProt Q8N4C8); details: cited from earlier work
# [2] = molecular target: STK10/LOK (Homo sapiens, UniProt O94804); details: cited from earlier work
# [3] = system: SH-SY5Y cells; assay: AK (adenylate kinase) release ToxiLight cytotoxicity assay; details: PKIS2 primary screening; also: reference of the scale not given here
# [4] = system: SH-SY5Y cells; assay: Nuclear count from microscopy images (cellular growth and toxicity); details: PKIS2 primary screening; also: reference of the scale not given here
# [5] = molecular target: TGFBR2 (Homo sapiens, UniProt P37173); details: cited from earlier work
# [6] = molecular target: CSNK1D (Homo sapiens, UniProt P48730); details: cited from earlier work
# [7] = molecular target: BMPR1B (Homo sapiens, UniProt O00238); details: cited from earlier work
# [8] = molecular target: T1, PRKD1 (Homo sapiens, UniProt Q15139); details: cited from earlier work
# T1 sequence (Q15139 1-912): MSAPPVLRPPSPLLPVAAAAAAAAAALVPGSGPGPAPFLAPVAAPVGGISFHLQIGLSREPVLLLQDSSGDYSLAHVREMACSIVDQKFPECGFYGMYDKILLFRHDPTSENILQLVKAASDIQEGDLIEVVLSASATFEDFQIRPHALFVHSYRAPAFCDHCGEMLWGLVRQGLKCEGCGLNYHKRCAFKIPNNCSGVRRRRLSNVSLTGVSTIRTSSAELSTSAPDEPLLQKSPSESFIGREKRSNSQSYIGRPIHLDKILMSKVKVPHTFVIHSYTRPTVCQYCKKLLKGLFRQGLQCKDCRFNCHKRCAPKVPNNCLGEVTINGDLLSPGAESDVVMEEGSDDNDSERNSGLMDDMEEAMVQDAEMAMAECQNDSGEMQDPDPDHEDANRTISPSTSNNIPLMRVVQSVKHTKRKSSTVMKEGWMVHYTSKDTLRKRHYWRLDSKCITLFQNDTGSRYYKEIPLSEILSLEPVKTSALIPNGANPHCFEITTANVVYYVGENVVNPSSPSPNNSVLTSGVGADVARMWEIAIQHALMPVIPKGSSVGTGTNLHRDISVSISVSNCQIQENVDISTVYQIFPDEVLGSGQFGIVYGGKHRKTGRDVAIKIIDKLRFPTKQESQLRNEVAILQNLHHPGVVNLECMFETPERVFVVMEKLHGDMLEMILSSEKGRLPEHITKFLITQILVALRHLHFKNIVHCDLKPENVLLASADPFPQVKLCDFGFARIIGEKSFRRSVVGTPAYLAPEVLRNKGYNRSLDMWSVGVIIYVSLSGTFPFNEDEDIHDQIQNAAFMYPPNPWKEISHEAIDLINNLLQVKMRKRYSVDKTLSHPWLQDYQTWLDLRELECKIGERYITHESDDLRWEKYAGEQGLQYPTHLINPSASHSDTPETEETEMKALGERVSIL
# [9] = molecular target: MAPK9/JNK2 (Homo sapiens, UniProt P45984); details: cited from earlier work
# [10] = molecular target: MAPK10/JNK3 (Homo sapiens, UniProt P53779); details: cited from earlier work
# [11] = molecular target: MTOR (Homo sapiens, UniProt P42345); details: cited from earlier work
# [12] = molecular target: T2, TGFBR1 (Homo sapiens, UniProt P36897); details: cited from earlier work
# T2 sequence (P36897 34-503): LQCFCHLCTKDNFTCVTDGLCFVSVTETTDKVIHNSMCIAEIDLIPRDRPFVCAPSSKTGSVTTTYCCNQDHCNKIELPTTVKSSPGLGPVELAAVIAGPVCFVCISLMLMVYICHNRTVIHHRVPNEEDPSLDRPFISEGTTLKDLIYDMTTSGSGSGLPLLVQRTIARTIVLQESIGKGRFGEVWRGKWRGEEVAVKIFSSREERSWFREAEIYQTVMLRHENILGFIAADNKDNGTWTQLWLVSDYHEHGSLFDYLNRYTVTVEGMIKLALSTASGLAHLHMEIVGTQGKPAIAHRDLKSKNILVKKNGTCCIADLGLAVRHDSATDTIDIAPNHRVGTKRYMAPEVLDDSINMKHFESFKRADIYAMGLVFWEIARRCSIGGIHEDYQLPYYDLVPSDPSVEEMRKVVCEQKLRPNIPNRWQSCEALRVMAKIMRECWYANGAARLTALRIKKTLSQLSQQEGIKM
# [13] = molecular target: CIT (Homo sapiens, UniProt O14578); details: cited from earlier work
# Chain of CIT (O14578 whole entry): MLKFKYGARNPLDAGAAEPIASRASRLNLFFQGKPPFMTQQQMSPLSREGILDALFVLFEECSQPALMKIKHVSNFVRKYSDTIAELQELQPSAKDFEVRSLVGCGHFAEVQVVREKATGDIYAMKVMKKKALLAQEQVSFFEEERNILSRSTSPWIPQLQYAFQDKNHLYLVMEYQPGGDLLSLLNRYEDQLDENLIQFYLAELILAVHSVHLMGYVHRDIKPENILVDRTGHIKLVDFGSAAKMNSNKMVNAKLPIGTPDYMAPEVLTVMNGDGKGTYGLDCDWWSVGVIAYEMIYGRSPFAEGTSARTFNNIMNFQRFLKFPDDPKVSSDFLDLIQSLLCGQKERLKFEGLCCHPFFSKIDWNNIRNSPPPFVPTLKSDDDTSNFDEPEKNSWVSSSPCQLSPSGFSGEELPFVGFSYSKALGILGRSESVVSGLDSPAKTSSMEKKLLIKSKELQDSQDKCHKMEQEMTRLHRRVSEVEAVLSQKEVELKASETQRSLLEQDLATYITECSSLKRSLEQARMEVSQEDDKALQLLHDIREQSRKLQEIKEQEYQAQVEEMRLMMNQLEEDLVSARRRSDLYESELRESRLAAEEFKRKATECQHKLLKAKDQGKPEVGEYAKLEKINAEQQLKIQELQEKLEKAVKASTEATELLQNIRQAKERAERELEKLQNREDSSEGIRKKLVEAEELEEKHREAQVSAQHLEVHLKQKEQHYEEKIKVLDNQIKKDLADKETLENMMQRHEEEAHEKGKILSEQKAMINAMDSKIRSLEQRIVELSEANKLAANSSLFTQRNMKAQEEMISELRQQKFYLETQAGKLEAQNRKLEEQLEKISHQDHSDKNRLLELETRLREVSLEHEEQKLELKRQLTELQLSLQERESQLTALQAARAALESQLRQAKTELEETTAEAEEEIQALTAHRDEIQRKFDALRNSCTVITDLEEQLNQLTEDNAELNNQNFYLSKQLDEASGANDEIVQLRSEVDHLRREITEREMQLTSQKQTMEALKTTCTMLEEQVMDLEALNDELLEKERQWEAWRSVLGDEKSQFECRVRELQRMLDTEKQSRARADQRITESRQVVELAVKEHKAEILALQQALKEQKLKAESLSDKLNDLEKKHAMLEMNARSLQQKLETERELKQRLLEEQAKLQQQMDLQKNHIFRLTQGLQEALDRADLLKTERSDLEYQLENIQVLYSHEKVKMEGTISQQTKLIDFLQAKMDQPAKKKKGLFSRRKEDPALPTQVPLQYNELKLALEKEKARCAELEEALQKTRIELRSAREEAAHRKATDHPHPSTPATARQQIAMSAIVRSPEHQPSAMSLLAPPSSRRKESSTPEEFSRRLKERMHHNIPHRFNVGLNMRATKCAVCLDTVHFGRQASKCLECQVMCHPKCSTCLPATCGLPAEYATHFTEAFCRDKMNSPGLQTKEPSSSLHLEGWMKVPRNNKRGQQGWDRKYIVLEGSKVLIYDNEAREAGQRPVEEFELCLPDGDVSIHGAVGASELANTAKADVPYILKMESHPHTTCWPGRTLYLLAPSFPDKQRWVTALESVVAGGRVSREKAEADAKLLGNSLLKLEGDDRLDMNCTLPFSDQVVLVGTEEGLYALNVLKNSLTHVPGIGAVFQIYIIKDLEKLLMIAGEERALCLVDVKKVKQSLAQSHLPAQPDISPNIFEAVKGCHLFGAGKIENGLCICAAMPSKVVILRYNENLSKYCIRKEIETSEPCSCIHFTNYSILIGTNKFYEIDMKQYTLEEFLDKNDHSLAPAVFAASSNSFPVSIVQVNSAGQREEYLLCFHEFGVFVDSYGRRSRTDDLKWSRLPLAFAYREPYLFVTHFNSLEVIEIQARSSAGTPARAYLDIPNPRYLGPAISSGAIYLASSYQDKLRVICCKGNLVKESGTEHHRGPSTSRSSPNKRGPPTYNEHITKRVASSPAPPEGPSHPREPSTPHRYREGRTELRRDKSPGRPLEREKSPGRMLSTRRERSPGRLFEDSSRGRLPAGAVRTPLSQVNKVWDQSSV
# Chain of TGFBR2 (P37173 23-567): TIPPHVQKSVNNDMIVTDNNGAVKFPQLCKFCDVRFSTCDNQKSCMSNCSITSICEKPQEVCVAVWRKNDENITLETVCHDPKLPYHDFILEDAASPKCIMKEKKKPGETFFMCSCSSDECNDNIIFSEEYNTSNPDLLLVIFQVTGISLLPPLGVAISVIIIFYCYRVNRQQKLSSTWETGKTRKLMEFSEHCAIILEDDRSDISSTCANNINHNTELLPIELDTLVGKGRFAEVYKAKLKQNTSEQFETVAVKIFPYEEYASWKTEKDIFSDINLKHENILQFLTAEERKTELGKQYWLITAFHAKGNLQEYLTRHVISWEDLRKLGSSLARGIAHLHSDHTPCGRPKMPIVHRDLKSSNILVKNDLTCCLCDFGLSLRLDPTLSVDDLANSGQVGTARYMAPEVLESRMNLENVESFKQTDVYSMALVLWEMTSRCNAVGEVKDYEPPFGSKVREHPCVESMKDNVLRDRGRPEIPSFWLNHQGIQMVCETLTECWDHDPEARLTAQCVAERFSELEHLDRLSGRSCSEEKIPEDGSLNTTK
# Chain of STK10/LOK (O94804 whole entry): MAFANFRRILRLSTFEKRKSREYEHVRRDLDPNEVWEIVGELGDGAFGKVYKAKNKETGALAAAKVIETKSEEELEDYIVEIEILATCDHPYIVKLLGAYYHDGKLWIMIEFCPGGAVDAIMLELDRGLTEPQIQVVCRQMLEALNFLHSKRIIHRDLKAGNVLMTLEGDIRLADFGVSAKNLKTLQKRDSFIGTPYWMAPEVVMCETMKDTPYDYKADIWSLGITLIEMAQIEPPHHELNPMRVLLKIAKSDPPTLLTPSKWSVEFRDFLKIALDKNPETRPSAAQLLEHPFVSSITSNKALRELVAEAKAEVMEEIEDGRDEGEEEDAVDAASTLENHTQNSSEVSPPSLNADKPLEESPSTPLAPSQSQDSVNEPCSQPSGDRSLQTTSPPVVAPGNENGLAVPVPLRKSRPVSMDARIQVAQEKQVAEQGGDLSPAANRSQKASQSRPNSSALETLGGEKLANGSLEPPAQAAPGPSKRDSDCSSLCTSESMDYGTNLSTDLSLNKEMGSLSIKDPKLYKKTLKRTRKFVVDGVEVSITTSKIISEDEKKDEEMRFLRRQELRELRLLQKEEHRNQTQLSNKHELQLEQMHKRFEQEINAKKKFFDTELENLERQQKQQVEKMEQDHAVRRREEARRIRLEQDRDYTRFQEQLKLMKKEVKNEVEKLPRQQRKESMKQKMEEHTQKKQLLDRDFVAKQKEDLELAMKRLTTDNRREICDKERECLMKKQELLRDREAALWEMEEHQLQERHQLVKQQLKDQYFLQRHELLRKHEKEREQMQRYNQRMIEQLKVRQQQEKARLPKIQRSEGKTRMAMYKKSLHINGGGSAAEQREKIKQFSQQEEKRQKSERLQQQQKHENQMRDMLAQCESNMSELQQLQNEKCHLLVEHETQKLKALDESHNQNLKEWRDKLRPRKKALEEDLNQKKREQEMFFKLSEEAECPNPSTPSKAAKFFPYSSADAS
# Chain of CSNK1D (P48730 whole entry): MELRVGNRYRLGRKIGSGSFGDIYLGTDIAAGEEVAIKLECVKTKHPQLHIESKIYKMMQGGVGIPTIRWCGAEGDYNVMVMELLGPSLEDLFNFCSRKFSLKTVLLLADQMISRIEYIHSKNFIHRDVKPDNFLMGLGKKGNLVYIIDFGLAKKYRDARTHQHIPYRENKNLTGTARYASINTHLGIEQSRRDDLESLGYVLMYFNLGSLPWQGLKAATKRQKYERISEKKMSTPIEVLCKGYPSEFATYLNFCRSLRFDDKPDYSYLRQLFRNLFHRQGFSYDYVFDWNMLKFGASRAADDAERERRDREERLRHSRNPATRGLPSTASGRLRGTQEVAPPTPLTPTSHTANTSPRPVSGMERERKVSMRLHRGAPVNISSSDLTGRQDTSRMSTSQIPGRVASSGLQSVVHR
# Chain of MAPK9/JNK2 (P45984 whole entry): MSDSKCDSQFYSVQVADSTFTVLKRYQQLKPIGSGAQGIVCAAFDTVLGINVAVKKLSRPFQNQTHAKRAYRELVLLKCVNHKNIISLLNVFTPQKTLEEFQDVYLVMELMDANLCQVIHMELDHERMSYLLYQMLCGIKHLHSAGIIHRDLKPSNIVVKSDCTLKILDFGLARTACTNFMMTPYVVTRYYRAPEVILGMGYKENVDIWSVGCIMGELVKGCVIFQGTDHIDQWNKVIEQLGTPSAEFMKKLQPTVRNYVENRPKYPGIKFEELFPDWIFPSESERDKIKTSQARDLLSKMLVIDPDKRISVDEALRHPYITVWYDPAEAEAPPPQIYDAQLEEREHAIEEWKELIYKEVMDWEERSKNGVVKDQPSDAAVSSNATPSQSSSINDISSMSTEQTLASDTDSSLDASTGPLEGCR
# Chain of MAPK10/JNK3 (P53779 whole entry): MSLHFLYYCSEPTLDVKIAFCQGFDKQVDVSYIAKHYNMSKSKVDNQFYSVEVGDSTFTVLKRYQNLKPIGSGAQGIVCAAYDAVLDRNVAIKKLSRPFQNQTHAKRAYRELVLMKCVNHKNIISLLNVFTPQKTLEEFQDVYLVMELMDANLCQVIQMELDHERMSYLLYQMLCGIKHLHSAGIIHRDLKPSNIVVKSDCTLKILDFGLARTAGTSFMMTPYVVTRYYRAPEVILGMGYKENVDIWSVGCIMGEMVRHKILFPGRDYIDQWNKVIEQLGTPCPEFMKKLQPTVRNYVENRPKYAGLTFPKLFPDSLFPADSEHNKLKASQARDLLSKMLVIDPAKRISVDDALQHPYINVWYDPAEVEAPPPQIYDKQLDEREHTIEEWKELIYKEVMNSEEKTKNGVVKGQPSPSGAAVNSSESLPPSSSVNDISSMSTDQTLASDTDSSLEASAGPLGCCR
SMILES,KINOMEscan binding MINK1/MINK [1],KINOMEscan binding STK10/LOK [2],AK [3],Nuclear Count [4],KINOMEscan binding TGFBR2 [5],KINOMEscan binding CSNK1D [6],KINOMEscan binding BMPR1B [7],KINOMEscan binding PRKD1 [8],KINOMEscan binding MAPK9/JNK2 [9],KINOMEscan binding MAPK10/JNK3 [10],KINOMEscan binding MTOR [11],KINOMEscan binding TGFBR1 [12],KINOMEscan binding CIT [13]
Cc1ccc(-c2nc(Nc3ccncc3)c3ccccc3n2)s1 [GSK189015],2%,1%,70.77,75.74,21%,33%,0%,18%,19%,14%,10%,6%,42%
COc1ccc2nc(-c3cccc(C)n3)nc(Nc3ccncc3)c2c1 [GSK204919],30%,0%,106.43,98.76,10%,49%,0%,92.4%,60%,36%,43%,–,73%
Cc1cccc(-c2cc(Nc3ccncc3)c3ccccc3n2)n1 [GSK223675],–,–,117.83,85.07,0%,14%,0%,91.1%,–,–,7%,–,23%
Cc1cccc(-c2nc(Nc3ccncc3)c3ccccc3n2)n1 [GW855857],–,–,89.05,124.29,95.7%,73%,29%,86%,–,–,50%,–,91.1%
Cc1cccc(-c2nc(Nc3ccc4ncsc4c3)c3ccccc3n2)n1 [GW867588],0%,27%,60.47,62.46,0%,0%,0%,98.7%,8%,0%,0%,55%,13%
Cc1csc(-c2nc(Nc3ccncc3)c3ccccc3n2)n1 [GW869640],–,–,59.35,81.77,88%,46%,42%,69%,–,–,74%,–,61%
